Data: US20260041707A1, “GASTROINTESTINAL PROTECTANT COMPOSITION” (BIOIBERICA, S.A.U., priority 2022, published 2026)

Legend:
[1] = tested on: indomethacin-induced gastric irritation; assay: Rat model of indomethacin-induced gastric irritation; type: in vivo, Sprague-Dawley rats
Description: Forty-five Sprague-Dawley rats (8-9 weeks-old, 227.6±6.30 g) were divided in three groups (P1, P2 and P3; n=9 each) to receive orally 0.5 mL/rat of the test treatments. Two control groups were studied as well. […] 15 minutes after the administration of the treatment, all animals were challenged with an oral administration of indomethacin (12.5 mg/kg) and sacrificed 4 hours later. Gastric mucosal injury was examined at a macroscopical and microscopical level. Macroscopic lesions were evaluated with Image J software. Microscopically, submucosal edema and microvascular injury were scored in H&E-stained preparations (Hematoxylin&Eosin-stained preparations). Measurements were blinded and performed by two independent observers and an inter-observer mean was calculated.

human patients = details: humans; cited from earlier work

Sucrose octasulfate-aluminum complex [sucralfate]
microvascular injury evaluation (score, mean±SEM) ([1]; H&E-stained fundic sections, Placebo 1.53±0.077, significant vs Placebo): 0.94±0.123 | histological sections of the fundic stomach (findings) ([1]; microscopic evaluation, H&E-stained fundic sections): less severe lesions | percentage of hemorrhagic area related to the total gastric area (mean±SEM) ([1]; oral 0.5 mL/rat 15 min before oral indomethacin 12.5 mg/kg, sacrificed 4 hours later, Placebo 1.37±0.260%, p<0.05 vs Placebo): 0.41±0.154% | hemorrhagic area (mean±SEM) ([1]; oral 0.5 mL/rat 15 min before oral indomethacin 12.5 mg/kg, sacrificed 4 hours later, Placebo 13.05±2.700, p<0.05 vs Placebo): 4.28±1.495 mm^2 | other adverse effects (xerostomia, nausea, vomiting, headache, urticaria, rashes), incidence in patients (human patients): 0-5%
